Assay results from PubChem BioAssay AID248 (DTP/NCI, 2004).
Toxic doses and inconclusive results are not listed. Cut-off read from the data, not from the text of the source: active = T/C of 150% or more; inactive = T/C below 125%.

System: L1210 leukemia ip in BDF1 mice, survival T/C
Assay: NCI In Vivo Anticancer Drug Screen. Data for tumor model L1210 Leukemia (intraperitoneal) in B6D2F1 (BDF1) mice
Details: endpoint: mean survival time, higher = longer survival
Method in brief: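 Transplanted-tumor mice were given test agent; controls received vehicle only. Survival readings from the two groups were divided (treated over control).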

[1] = dose: 100.0 mg/kg/injection, schedule: Q01DX001 (ip), vehicle: carboxymethylcellulose (CMC)
[2] = dose: 200.0 mg/kg/injection, schedule: Q01DX001 (ip), vehicle: carboxymethylcellulose (CMC)
[3] = dose: 400.0 mg/kg/injection, schedule: Q01DX001 (ip), vehicle: carboxymethylcellulose (CMC)
[4] = dose: 50.0 mg/kg/injection, schedule: Q04DX002 (ip), vehicle: saline with Tween-80
[5] = dose: 400.0 mg/kg/injection, schedule: Q04DX002 (ip), vehicle: saline with Tween-80
[6] = dose: 100.0 mg/kg/injection, schedule: Q01DX001 (ip), vehicle: saline
[7] = dose: 200.0 mg/kg/injection, schedule: Q01DX001 (ip), vehicle: saline
[8] = dose: 400.0 mg/kg/injection, schedule: Q01DX001 (ip), vehicle: saline
[9] = dose: 50.0 mg/kg/injection, schedule: Q01DX009 (ip), vehicle: Klucel (hydroxypropylcellulose) (HPC)
[10] = dose: 100.0 mg/kg/injection, schedule: Q01DX009 (ip), vehicle: Klucel (hydroxypropylcellulose) (HPC)
[11] = dose: 200.0 mg/kg/injection, schedule: Q01DX009 (ip), vehicle: Klucel (hydroxypropylcellulose) (HPC)
[12] = dose: 400.0 mg/kg/injection, schedule: Q01DX009 (ip), vehicle: Klucel (hydroxypropylcellulose) (HPC)
[13] = dose: 100.0 mg/kg/injection, schedule: Q04DX003 (ip), vehicle: saline with Tween-80
[14] = dose: 200.0 mg/kg/injection, schedule: Q04DX003 (ip), vehicle: saline with Tween-80
[15] = dose: 400.0 mg/kg/injection, schedule: Q01DX009 (ip), vehicle: saline with Tween-80
[16] = dose: 50.0 mg/kg/injection, schedule: Q01DX001 (ip), vehicle: carboxymethylcellulose (CMC)
[17] = dose: 50.0 mg/kg/injection, schedule: Q04DX003 (ip), vehicle: Klucel (hydroxypropylcellulose) (HPC)
[18] = dose: 100.0 mg/kg/injection, schedule: Q04DX003 (ip), vehicle: Klucel (hydroxypropylcellulose) (HPC)
[19] = dose: 200.0 mg/kg/injection, schedule: Q04DX003 (ip), vehicle: Klucel (hydroxypropylcellulose) (HPC)
[20] = dose: 400.0 mg/kg/injection, schedule: Q04DX003 (ip), vehicle: Klucel (hydroxypropylcellulose) (HPC)

Measured: T/C

O=C(NCCCl)NC1CCC(C(=O)O)CC1 (stereo unspecified)
inactive: dose: 100.0 mg/kg/injection, schedule: Q01DX001 (ip), vehicle: saline with Tween-80 97 % of control | dose: 200.0 mg/kg/injection, schedule: Q01DX001 (ip), vehicle: saline with Tween-80 100 % of control | dose: 400.0 mg/kg/injection, schedule: Q01DX001 (ip), vehicle: saline with Tween-80 94 % of control

COc1cccc(C2CCCCC2OS(C)(=O)=O)c1 (stereo unspecified)
inactive: [1] 97 % of control | [2] 92 % of control | [3] 95 % of control

CCCCCCCC(CCCCCC)CCCCCCC
inactive: [4] 89 % of control | dose: 100.0 mg/kg/injection, schedule: Q04DX002 (ip), vehicle: saline with Tween-80 110 % of control | dose: 200.0 mg/kg/injection, schedule: Q04DX002 (ip), vehicle: saline with Tween-80 103 % of control | [5] 106 % of control

NC(=S)c1c(N)ncn1C1OC(CO)C(O)C1O (stereo unspecified)
inactive: dose: 100.0 mg/kg/injection, schedule: Q01DX005 (ip), vehicle: saline 92 % of control | dose: 200.0 mg/kg/injection, schedule: Q01DX005 (ip), vehicle: saline 90 % of control

OCC1OC(n2cnc3cncnc32)CC1O (stereo unspecified)
inactive: [6] 103 % of control | [7] 97 % of control | [8] 107 % of control

OCC1(c2ccccc2)OC1c1ccccc1 (stereo unspecified)
inactive: [9] 95 % of control | dose: 75.0 mg/kg/injection, schedule: Q04DX003 (ip), vehicle: Klucel (hydroxypropylcellulose) (HPC) 102 % of control | [10] 96 % of control | dose: 150.0 mg/kg/injection, schedule: Q04DX003 (ip), vehicle: Klucel (hydroxypropylcellulose) (HPC) 102 % of control | [11] 96 % of control | dose: 300.0 mg/kg/injection, schedule: Q04DX003 (ip), vehicle: Klucel (hydroxypropylcellulose) (HPC) 107 % of control

CC(C)c1cccc2ccccc12
inactive: dose: 100.0 mg/kg/injection, schedule: Q04DX003 (ip), vehicle: acetone 95 % of control | dose: 200.0 mg/kg/injection, schedule: Q04DX003 (ip), vehicle: acetone 88 % of control

CCCNC(C)CC(=O)OCC (stereo unspecified)
inactive: dose: 100.0 mg/kg/injection, schedule: Q01DX Z (ip), vehicle: methylcellulose (MC) 96 % of control | dose: 200.0 mg/kg/injection, schedule: Q01DX Z (ip), vehicle: methylcellulose (MC) 94 % of control

CC1(C(=O)c2ccccc2)OC1c1ccccc1 (stereo unspecified)
inactive: [10] 98 % of control | [11] 104 % of control | [12] 103 % of control

O=C(O)c1cccc(F)n1
inactive: [13] 91 % of control | [14] 89 % of control

Br/C=C/C1CCCCC1
inactive: dose: 100.0 mg/kg/injection, schedule: Q01DX009 (ip), vehicle: acetone 104 % of control | dose: 100.0 mg/kg/injection, schedule: Q04DX003 (ip), vehicle: saline 105 % of control | dose: 200.0 mg/kg/injection, schedule: Q01DX009 (ip), vehicle: acetone 123 % of control | dose: 200.0 mg/kg/injection, schedule: Q04DX003 (ip), vehicle: saline 92 % of control | dose: 400.0 mg/kg/injection, schedule: Q01DX009 (ip), vehicle: acetone 107 % of control | dose: 400.0 mg/kg/injection, schedule: Q04DX003 (ip), vehicle: saline 92 % of control

CCOC(=O)Nc1ccc(OC(=O)Oc2ccc(NC(=O)OCC)cc2)cc1
inactive: [6] 97 % of control | [7] 97 % of control | [8] 86 % of control

O=C(O)CCCOc1ccc(Cl)cc1Cl
inactive: dose: 100.0 mg/kg/injection, schedule: Q01DX009 (ip), vehicle: saline with Tween-80 103 % of control | dose: 200.0 mg/kg/injection, schedule: Q01DX009 (ip), vehicle: saline with Tween-80 98 % of control | [15] 103 % of control

CCC(C)(C)C(=O)Nc1cccc(OC(=O)NC)c1
inactive: [15] 93 % of control

CC1([N+](=O)[O-])COP(=O)(NCc2ccccc2)OC1 (stereo unspecified)
inactive: [16] 97 % of control | [1] 107 % of control | [2] 109 % of control | [3] 97 % of control

COC(=O)CCC(=O)c1cccc(C)c1
inactive: [13] 88 % of control | [14] 99 % of control | dose: 400.0 mg/kg/injection, schedule: Q04DX003 (ip), vehicle: saline with Tween-80 94 % of control

O=[N+]([O-])/C=C\c1cc(Cl)c(/C=C/[N+](=O)[O-])c(Cl)c1Cl
inactive: dose: 2.5 mg/kg/injection, schedule: Q01DX009 (ip), vehicle: saline 88 % of control | dose: 10.0 mg/kg/injection, schedule: Q01DX001 (ip), vehicle: acetone 89 % of control | dose: 10.0 mg/kg/injection, schedule: Q04DX003 (ip), vehicle: acetone 91 % of control | dose: 20.0 mg/kg/injection, schedule: Q01DX001 (ip), vehicle: acetone 94 % of control | dose: 20.0 mg/kg/injection, schedule: Q04DX003 (ip), vehicle: acetone 101 % of control

Cc1ccc(S(=O)(=O)/N=C(\N)CCl)cc1
inactive: dose: 12.5 mg/kg/injection, schedule: Q04DX002 (ip), vehicle: saline with Tween-80 98 % of control | dose: 25.0 mg/kg/injection, schedule: Q04DX002 (ip), vehicle: saline with Tween-80 120 % of control | [4] 95 % of control

COC1=C(Nc2ccccc2C)C(=O)C(OC)=C(Nc2ccccc2C)C1=O
inactive: [16] 87 % of control | [1] 96 % of control | [2] 98 % of control | [3] 96 % of control

CCC(C)C1NC(=O)C(C(C)=O)=C1O.[Cu+2] (stereo unspecified)
inactive: dose: 150.0 mg/kg/injection, schedule: Q01DX001 (ip), vehicle: carboxymethylcellulose (CMC) 105 % of control

CC1(Cl)C(=O)NN=C1c1ccc([N+](=O)[O-])cc1 (stereo unspecified)
inactive: [1] 102 % of control | [2] 102 % of control | [3] 105 % of control

C[Si](C)(C)Cc1ccccc1F
inactive: dose: 25.6 mg/kg/injection, schedule: Q04DX002 (ip), vehicle: saline with Tween-80 101 % of control | dose: 64.0 mg/kg/injection, schedule: Q04DX002 (ip), vehicle: saline with Tween-80 93 % of control | dose: 160.0 mg/kg/injection, schedule: Q04DX002 (ip), vehicle: saline with Tween-80 104 % of control | [5] 90 % of control

ClC1(Cl)C2CCC3(CC21)OCCO3 (stereo unspecified)
inactive: [17] 115 % of control | dose: 100.0 mg/kg/injection, schedule: Q01DX001 (ip), vehicle: Klucel (hydroxypropylcellulose) (HPC) 114 % of control | [18] 103 % of control | dose: 200.0 mg/kg/injection, schedule: Q01DX001 (ip), vehicle: Klucel (hydroxypropylcellulose) (HPC) 106 % of control | [19] 93 % of control | dose: 400.0 mg/kg/injection, schedule: Q01DX001 (ip), vehicle: Klucel (hydroxypropylcellulose) (HPC) 101 % of control | [20] 106 % of control

Cc1ccc(C2(C(=O)O)CCCCC2)cc1
inactive: [9] 96 % of control | [10] 90 % of control | [18] 102 % of control | [11] 88 % of control | [19] 98 % of control

CC1CN(C(C)C)C1
inactive: dose: 100.0 mg/kg/injection, schedule: Q01DX001 (ip), vehicle: acetone 101 % of control | dose: 200.0 mg/kg/injection, schedule: Q01DX001 (ip), vehicle: acetone 97 % of control

COc1cc(OC)c([N+](=O)[O-])cc1Cl
inactive: [10] 96 % of control | [18] 96 % of control | [11] 96 % of control | [19] 93 % of control | [12] 92 % of control | [20] 94 % of control

NNC(=O)c1cccs1
inactive: dose: 25.0 mg/kg/injection, schedule: Q01DX009 (ip), vehicle: Klucel (hydroxypropylcellulose) (HPC) 100 % of control | dose: 25.0 mg/kg/injection, schedule: Q04DX003 (ip), vehicle: Klucel (hydroxypropylcellulose) (HPC) 95 % of control | [16] 100 % of control | [9] 103 % of control | [17] 95 % of control | [18] 101 % of control
